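In this assay, cells in 96-well plates receive the compound at five concentrations for 48 hours. Endpoints are linearly interpolated between the surrounding concentrations. At the GI50, growth is halved.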 Activity calls are given as the source filed them. No stated cut-off is given here; in the data, active = GI50 up to about 1.1 µM and inactive = higher.
What was measured:
Experiment in all cases: inhibition of tumour cell growth, NCI panel, 48 h
A549 = test system: A549
ACHN = test system: ACHN
CAKI-1 = test system: CAKI-1
COLO 205 = test system: COLO 205
HL-60 = test system: HL-60
HT-29 = test system: HT-29
IGROV-1 = test system: IGROV-1
K562 = test system: K562
MOLT-4 = test system: MOLT-4
OVCAR-4 = test system: OVCAR-4
OVCAR-5 = test system: OVCAR-5
RPMI-8226 = test system: RPMI-8226
SF-268 = test system: SF-268
SK-MEL-28 = test system: SK-MEL-28
SK-OV-3 = test system: SK-OV-3
SNB-19 = test system: SNB-19
SNB-75 = test system: SNB-75
SR = test system: SR
UACC-257 = test system: UACC-257
M14 = test system: M14

Structure (SMILES) | GI50 (A549) | GI50 (ACHN) | GI50 (CAKI-1) | GI50 (COLO 205) | GI50 (HL-60) | GI50 (HT-29) | GI50 (IGROV-1) | GI50 (K562) | GI50 (MOLT-4) | GI50 (OVCAR-4) | GI50 (OVCAR-5) | GI50 (RPMI-8226) | GI50 (SF-268) | GI50 (SK-MEL-28) | GI50 (SK-OV-3) | GI50 (SNB-19) | GI50 (SNB-75) | GI50 (SR) | GI50 (UACC-257) | GI50 (M14)
Nc1ccn(C2OC(CO[PH](=O)OC3C(CO[PH](=O)OC4C(CO[PH](=O)OC5C(CO[PH](=O)OC6C(CO[PH](=O)OC7C(CO[PH](=O)OC8C(CO[PH](=O)OC9C(CO[PH](=O)OC%10C(CO[PH](=O)OC%11C(CO)OC(n%12ccc(N)nc%12=O)C%11(F)F)OC(n%11ccc(N)nc%11=O)C%10(F)F)OC(n%10ccc(N)nc%10=O)C9(F)F)OC(n9ccc(N)nc9=O)C8(F)F)OC(n8ccc(N)nc8=O)C7(F)F)OC(n7ccc(N)nc7=O)C6(F)F)OC(n6ccc(N)nc6=O)C5(F)F)OC(n5ccc(N)nc5=O)C4(F)F)OC(n4ccc(N)nc4=O)C3(F)F)C(O)C2(F)F)c(=O)n1 (centres undefined) | 0.016 µM (active) | 0.00533 µM (active) | 0.0316 µM (active) | 0.741 µM (active) | 0.0193 µM (active) | 0.112 µM (active) | 0.912 µM (active) | 1.49 µM (inactive) | 0.0333 µM (active) | 10 µM (inactive) | 0.111 µM (active) | 0.0582 µM (active) | 0.0285 µM (active) | 0.594 µM (active) | 0.979 µM (active) | 0.0259 µM (active) | 0.0254 µM (active) | 0.0183 µM (active) | 0.34 µM (active) | –
COc1cc2cc(C(=O)N3CC(CCl)c4ccc(NO)cc43)[nH]c2c(OC)c1OC (centres undefined) | 0.0897 µM (active) | 0.091 µM (active) | 0.227 µM (active) | 0.468 µM (active) | 0.126 µM (active) | 0.0646 µM (active) | 0.0968 µM (active) | 0.139 µM (active) | 0.184 µM (active) | 0.177 µM (active) | 0.15 µM (active) | 0.117 µM (active) | 0.101 µM (active) | 0.245 µM (active) | 0.284 µM (active) | 0.264 µM (active) | 0.177 µM (active) | 0.0577 µM (active) | 0.201 µM (active) | 0.188 µM (active)
O=C(OCCOC(=O)c1ccc2c(c1)C1(SCCS1)c1ccccc1-2)c1ccc2c(c1)C1(SCCS1)c1ccccc1-2 | > 100 µM (inactive) | > 100 µM (inactive) | > 100 µM (inactive) | > 100 µM (inactive) | > 100 µM (inactive) | > 100 µM (inactive) | > 100 µM (inactive) | > 100 µM (inactive) | > 100 µM (inactive) | > 100 µM (inactive) | > 100 µM (inactive) | > 100 µM (inactive) | > 100 µM (inactive) | > 100 µM (inactive) | > 100 µM (inactive) | > 100 µM (inactive) | > 100 µM (inactive) | > 100 µM (inactive) | > 100 µM (inactive) | > 100 µM (inactive)
CCC(=O)NC(Nc1cccc(F)c1)(C(F)(F)F)C(F)(F)F | > 100 µM (inactive) | > 100 µM (inactive) | 10.7 µM (inactive) | > 100 µM (inactive) | 86.9 µM (inactive) | > 100 µM (inactive) | > 100 µM (inactive) | > 100 µM (inactive) | 57 µM (inactive) | > 100 µM (inactive) | > 100 µM (inactive) | > 100 µM (inactive) | > 100 µM (inactive) | > 100 µM (inactive) | > 100 µM (inactive) | > 100 µM (inactive) | > 100 µM (inactive) | > 100 µM (inactive) | > 100 µM (inactive) | > 100 µM (inactive)
Cc1ccc(C2CC(c3cccc([N+](=O)[O-])c3)=Nc3ccccc3S2)cc1 (centres undefined) | 48.8 µM (inactive) | 50.1 µM (inactive) | 24.3 µM (inactive) | 98.2 µM (inactive) | 20.1 µM (inactive) | 32.4 µM (inactive) | 63.8 µM (inactive) | 20.6 µM (inactive) | 25.5 µM (inactive) | 44.6 µM (inactive) | > 100 µM (inactive) | 7.83 µM (inactive) | 34.9 µM (inactive) | 62.4 µM (inactive) | > 100 µM (inactive) | > 58.3 µM (inactive) | 21 µM (inactive) | 25.8 µM (inactive) | 34.6 µM (inactive) | 31.8 µM (inactive)

— ChEMBL document CHEMBL1201862, “PubChem BioAssay data set” (2004)
